Measurements as given in paper PMC9347360 (RSC Chemical Biology, 2022).
Where a SMILES comes first, the peptide text is derived from it.

Experiments:
wild type BRD1-BD = target: T1, wild type BRD1-BD (Homo sapiens, UniProt O95696); assay: ITC binding to wild type BRD1 bromodomain
T1 sequence (O95696 562-666 limits assumed): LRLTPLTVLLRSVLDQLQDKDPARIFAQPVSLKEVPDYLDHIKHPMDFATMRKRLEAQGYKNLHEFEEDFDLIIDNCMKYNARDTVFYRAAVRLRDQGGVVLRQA

BRD4-BD1 [1] = assay: ITC binding to BRD4-BD1; conditions: BRD4-BD1 Kd (ref 36) compared to that of BRD1-BD
BRD4-BD1 [2] = conditions: as measured previously; cited from earlier work

In the case of `CC(=O)NCCCC[C@H](NC(=O)CNC(=O)[C@H](C)NC(=O)[C@H](C)NC(=O)[C@H](CCCCNC(C)=O)NC(=O)[C@H](C)N)C(=O)N[C@@H](CC(C)C)C(=O)N[C@@H](CCCCNC(C)=O)C(=O)N[C@@H](C)C(N)=O` [peptide 6] (H-AK(Ac)AAGK(Ac)LK(Ac)A-NH2), the Kd (wild type BRD1-BD) is listed as 24.5 ± 11.7 µM, the “Kd for BRD4-BD1 relative to BRD1-BD (fold higher)” value (BRD4-BD1 [1]) is listed as “about 15 fold” and the Kd (BRD4-BD1 [2]) is listed as 353 µM.
